Experiments:
human HIF-PHD3 = target: T1, human HIF-PHD3 (Homo sapiens, UniProt Q9H6Z9); assay: HIF-PHD inhibition assay (fluorescence polarization), human HIF-PHD3; format: biochemical; settings: 2-oxoglutaric acid 166 μmol/L
T1 construct: purchased CrystalGenomics Ltd
Outline: (§1)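 FP readout; enzyme activity = mP post-enzyme − mP pre-enzyme. FAM-labelled probe, ACA spacer.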

human HIF-PHD2 = target: T2, human HIF-PHD2 (Homo sapiens, UniProt Q9GZT9); assay: HIF-PHD inhibition assay (fluorescence polarization), human HIF-PHD2; format: biochemical; settings: 2-oxoglutaric acid 3.33 μmol/L
T2 construct: purchased CrystalGenomics Ltd
Outline: as §1

Hep3B cells = assay: EPO production assay (ELISA of culture supernatant); format: cell-based; settings: Homo sapiens, 3 μmol/L test compound, 48 hours, relative to control (0.1% DMSO), read-out: EPO production stimulation rate with 3 μmol/L test compound
Outline: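 Values are fold EPO production at 3 μmol/L compound relative to untreated control, quantified by ELISA of culture supernatant. Hep3B cells were exposed for 48 h in MEM containing 0.5% FBS and 0.1% DMSO.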

T2 sequence (Q9GZT9 2-426 limits assumed): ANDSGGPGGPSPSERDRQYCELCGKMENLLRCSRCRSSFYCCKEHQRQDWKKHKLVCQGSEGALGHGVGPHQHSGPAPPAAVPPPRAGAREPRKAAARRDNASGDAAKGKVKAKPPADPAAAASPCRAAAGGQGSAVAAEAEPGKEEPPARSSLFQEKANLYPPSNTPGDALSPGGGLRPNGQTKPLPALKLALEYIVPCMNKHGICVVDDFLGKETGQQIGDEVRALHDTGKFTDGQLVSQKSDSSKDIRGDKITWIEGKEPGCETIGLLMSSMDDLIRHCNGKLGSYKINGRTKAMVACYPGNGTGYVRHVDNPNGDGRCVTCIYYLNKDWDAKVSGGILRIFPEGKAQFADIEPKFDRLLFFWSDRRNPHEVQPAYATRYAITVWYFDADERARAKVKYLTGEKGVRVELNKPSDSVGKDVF
T1 sequence (Q9H6Z9 whole entry): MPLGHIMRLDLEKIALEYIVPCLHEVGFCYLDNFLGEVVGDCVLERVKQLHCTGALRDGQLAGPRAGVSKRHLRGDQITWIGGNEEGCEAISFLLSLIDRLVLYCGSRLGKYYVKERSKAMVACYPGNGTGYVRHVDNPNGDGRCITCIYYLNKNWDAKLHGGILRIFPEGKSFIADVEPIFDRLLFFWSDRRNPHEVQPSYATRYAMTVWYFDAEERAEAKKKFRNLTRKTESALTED

IC50 (human HIF-PHD3) [nM]	IC50 (human HIF-PHD2) [nM]	SMILES	fold induction at 3 µM (Hep3B cells)
68	2.3	O=C(O)c1cnn(-c2nc(O)c3nn(Cc4ccc(-c5ccccc5)cc4F)cc3n2)c1 [Example 245]	6.2
160	21	O=C(O)c1cnn(-c2nc(O)c3nn(CCCN(c4ccccc4)c4ccccc4)cc3n2)c1 [Example 246]	1.8
270	17	O=C(O)c1cnn(-c2nc(O)c3nn(CC4CCN(c5ccc(C(F)(F)F)cn5)CC4)cc3n2)c1 [Example 247]	1.3
99	15	O=C(O)c1cnn(-c2nc(O)c3nn(CCC(c4ccccc4)c4ccccc4)cc3n2)c1 [Example 248]	3.2
360	53	CCC(c1ccc(C(F)(F)F)cc1)n1ncc2nc(-n3cc(C(=O)O)cn3)nc(O)c21 (stereo not drawn) [Example 326]	7.7
290	23	O=C(O)c1cnn(-c2nc(O)c3c(cnn3CC3CCC4(CC3)CC4)n2)c1 [Example 378]	9.6
200	16	O=C(O)c1cnn(-c2nc(O)c3c(cnn3CC3CCC4(CCC4)CC3)n2)c1 [Example 379]	10
400	20	CC1(C)CCC(Cn2ncc3nc(-n4cc(C(=O)O)cn4)nc(O)c32)CC1 [Example 380]	3.9
500	46	O=C(O)c1cnn(-c2nc(O)c3c(cnn3CC34CC5CC(CC(C5)C3)C4)n2)c1 [Example 381]	6.3
550	22	C[C@@H](c1ccc(C(F)(F)F)cc1)n1nc(F)c2nc(-n3cc(C(=O)O)cn3)nc(O)c21 [Example 439]	5.3
160	17	C[C@@H](c1ccc(Cl)c(Cl)c1)n1nc(F)c2nc(-n3cc(C(=O)O)cn3)nc(O)c21 [Example 440]	2.6
360	11	C[C@@H](c1ccc2ccccc2c1)n1nc(F)c2nc(-n3cc(C(=O)O)cn3)nc(O)c21 [Example 442]	3.3
250	16	C[C@@H](c1ccc(C(F)(F)F)cc1)n1nc(Cl)c2nc(-n3cc(C(=O)O)cn3)nc(O)c21 [Example 443]	2.9
360	37	Cc1nn(Cc2ccc(C(F)(F)F)cc2)c2c(O)nc(-n3cc(C(=O)O)cn3)nc12 [Example 444]	2.2
480	18	Cc1nn([C@@H](C)c2ccc(C(F)(F)F)cc2)c2c(O)nc(-n3cc(C(=O)O)cn3)nc12 [Example 446]	6.3
560	20	Cc1nn([C@@H](C)c2ccc(Cl)c(Cl)c2)c2c(O)nc(-n3cc(C(=O)O)cn3)nc12 [Example 447]	5.4
730	30	Cc1nn([C@@H](C)c2ccc3ccccc3c2)c2c(O)nc(-n3cc(C(=O)O)cn3)nc12 [Example 454]	2.7

IC50 (human HIF-PHD3) [nM]	IC50 (human HIF-PHD2) [nM]	SMILES	fold induction at 3 µM (Hep3B cells)
210	11	O=C(O)c1cnn(-c2nc(O)c3c(n2)c(F)nn3C[C@H]2CC[C@H](C(F)(F)F)CC2)c1 [Example 465]	2.5
240	12	O=C(O)c1cnn(-c2nc(O)c3c(n2)c(F)nn3CC2CCC3(CC2)CC3)c1 [Example 466]	2.6
270	15	O=C(O)c1cnn(-c2nc(O)c3c(n2)c(F)nn3CC2CCC3(CCC3)CC2)c1 [Example 467]	3.2
300	25	C[C@@H](C1CCCCC1)n1nc(F)c2nc(-n3cc(C(=O)O)cn3)nc(O)c21 [Example 468]	3.1
260	48	CC1(Cn2nc(F)c3nc(-n4cc(C(=O)O)cn4)nc(O)c32)CCCCC1 [Example 470]	1.7
170	15	O=C(O)c1cnn(-c2nc(O)c3c(n2)c(F)nn3CCC2CCCC2)c1 [Example 471]	1.4
350	17	O=C(O)c1cnn(-c2nc(O)c3c(n2)c(F)nn3CCC2CCCCC2)c1 [Example 472]	2.4
1200	48	Cc1nn(CC2CCCCCC2)c2c(O)nc(-n3cc(C(=O)O)cn3)nc12 [Example 473]	2
190	30	Cc1nn(C[C@H]2CC[C@H](C(F)(F)F)CC2)c2c(O)nc(-n3cc(C(=O)O)cn3)nc12 [Example 474]	2.8
570	36	Cc1nn(CCC2CCCC2)c2c(O)nc(-n3cc(C(=O)O)cn3)nc12 [Example 476]	2.7
830	180	O=C(O)c1cnn(-c2nc(O)c3c(n2)c(C(F)(F)F)nn3CC2CCCCC2)c1 [Example 477]	2.5
370	45	O=C(O)c1cnn(-c2nc(O)c3c(n2)c(F)nn3C2CCCCC2)c1 [Example 478]	1.8
> 1000	35	O=C(O)c1cnn(-c2nc(O)c3[nH]ncc3n2)c1 [Example 484]	1.6
550	86	CCCC(C)(C)Cn1ncc2nc(-n3cc(C(=O)O)cn3)nc(O)c21 [Example 493]	2.8
500	68	CCCC(CCC)Cn1ncc2nc(-n3cc(C(=O)O)cn3)nc(O)c21 [Example 495]	18
310	49	CCC(CC)Cn1nc(F)c2nc(-n3cc(C(=O)O)cn3)nc(O)c21 [Example 498]	2.7

Reference: patent US20150239889A1, “PYRAZOLOPYRIMIDINE COMPOUND” (MITSUBISHI TANABE PHARMA CORPORATION, priority 2012, published 2015)
